Source: PubChem BioAssay AID1963863 (Molecular Pharmacology Branch, DTP, NCI, 2024)

Tested on: 931267-113-T-J1-PDC KRAS spheroid with HUVEC/MSC, viability
Test: Anticancer human tumor 931267-113-T-J1-PDC patient-derived colon adenocarcinoma cell line growth inhibition [KRAS2]
Settings: for IC50: curve of first compound; for viability, T/C: stronger effect = lower value
Source text: Multicellular complex tumor spheroid response to RAS pathway inhibitors in combination with a targeted agents in patient-derived cell lines with oncogenic KRAS variants from multiple cancer types
A high-throughput screen of multi-cell type tumor spheroids was designed to identify active combinations of targeted small molecules and KRAS pathway inhibitors. Complex spheroids include a stromal component modeled by human endothelial cells (HUVEC) and fibroblasts modeled by human mesenchymal stem cells (MSCs). The concentration ranges selected for each drug and investigational agent were based upon clinically achievable concentrations if the clinical Cmax of the agent was known.
Compounds. The drugs and investigational agents: BI-3406 (NSC825286), BAY-293 (NSC824723), batoprotafib (TNO155; NSC825523), sotorasib (AMG 510; NSC818433), MRTX1257 (NSC819558), elimusertib (BAY 1895344; NSC800525), molibresib (GSK525762; NSC774829), temuterkib (LY3214996; NSC803410), venetoclax (NSC766270), alisertib (NSC759677), olaparib (NSC753686), talazoparib (NSC767125), erdafitinib (NSC781556), ipatasertib (NSC767898), cabozantinib (NSC761068), nintedanib (NSC756659), abemaciclib (NSC768073), docetaxel (NSC628503), trametinib (NSC758246), and sapanisertib (NSC764658) were obtained from the National Cancer Institute (NCI) Developmental Therapeutics Program Chemical Repository. The FDA-approved anticancer drug set is available from the Developmental Therapeutics Program. […] The stock solutions were prepared in dimethyl sulfoxide (DMSO, Sigma-Aldrich, St. Louis, MO, cat. D2650) at 800-fold the tested concentration and stored at -70 degrees C prior to their use. All drugs and investigational agents were tested over a range starting from a high concentration at or near the clinical Cmax and decreasing in half-log increments. If the clinical Cmax for an agent had not been determined, the highest concentration tested was 10 microM.
Cell Culture. All cells were maintained in an incubator at 37 degrees C and 5% CO2 with 95% humidity. The PDC lines were cultured according to standard operating procedures established by the NCI PDMR (https://pdmr.cancer.gov/sops/default.htm). Briefly, all PDCs were thawed and cultured in Matrigel-coated flasks prepared with a working solution of 1X Ham's F-12 nutrient mix, without supplementation (Invitrogen, Waltham, MA, cat. 11765054), 100 U/mL penicillin-streptomycin (Invitrogen, cat. 15140122), and 2.5% Matrigel (Corning Inc., Corning, NY, cat. 354248) for the first three passages. All PDCs were cultured in complete DMEM/F-12 media containing advanced DMEM/F-12 (Invitrogen, cat. 12634028), 4.9% defined fetal bovine serum, heat inactivated (HyClone Laboratories Inc., Logan, UT, cat. SH30070.03HI), 389 ng/mL hydrocortisone (Sigma-Aldrich, cat. H4001), 9.7 ng/mL human EGF recombinant protein (Invitrogen, cat. PHG0313), 23.4 microg/mL adenine (Sigma-Aldrich, cat. A2786), 97.3 U/mL penicillin-streptomycin (Invitrogen, cat. 15140122), 1.9 mM L-glutamine (Invitrogen, cat. 25030081), and 9.7 microM Y-27632 dihydrochloride (Tocris Bioscience, Bristol, United Kingdom, cat. 1254). The PDCs were cultured in complete DMEM/F12 media without 9.7 microM Y-27632 dihydrochloride for at least two passages prior to the screen. The established cell line HOP-62 was cultured in RPMI 1640 medium, HEPES (Invitrogen, cat. 22400105) with 10% defined fetal bovine serum (HyClone Laboratories Inc., cat. SH30070.03) and 2 mM L-glutamine (Invitrogen, cat. 25030081). The pooled donor HUVEC were cultured in endothelial cell growth medium 2 (PromoCell, Heidelberg, Germany, cat. C-22011) and the hMSC were cultured in mesenchymal stem cell growth medium 2 (PromoCell, cat. C-28009). For all experiments, HUVEC and hMSC were used at passages </=5, while the malignant cell lines were used at passages </=15. […]

[1] = second compound 0.1 µM, first compound 0.01 µM
[2] = second compound 0.1 µM, first compound 0.0316 µM
[3] = second compound 0.1 µM, first compound 0.1 µM
[4] = second compound 0.1 µM, first compound 0.316 µM
[5] = second compound 0.1 µM, first compound 1 µM
[6] = second compound 0.1 µM, first compound 3.16 µM
[7] = second compound 0.316 µM, first compound 0.01 µM
[8] = second compound 0.316 µM, first compound 0.0316 µM
[9] = second compound 0.316 µM, first compound 0.1 µM
[10] = second compound 0.316 µM, first compound 0.316 µM
[11] = second compound 0.316 µM, first compound 1 µM
[12] = second compound 0.316 µM, first compound 3.16 µM
[13] = second compound 1 µM, first compound 0.01 µM
[14] = second compound 1 µM, first compound 0.0316 µM
[15] = second compound 1 µM, first compound 0.1 µM
[16] = second compound 1 µM, first compound 0.316 µM
[17] = second compound 1 µM, first compound 1 µM
[18] = second compound 1 µM, first compound 3.16 µM
[19] = second compound 3.16 µM, first compound 0.01 µM
[20] = second compound 3.16 µM, first compound 0.0316 µM
[21] = second compound 3.16 µM, first compound 0.1 µM
[22] = second compound 3.16 µM, first compound 0.316 µM
[23] = second compound 3.16 µM, first compound 1 µM
[24] = second compound 3.16 µM, first compound 3.16 µM
[25] = second compound 10 µM, first compound 0.01 µM
[26] = second compound 10 µM, first compound 0.0316 µM
[27] = second compound 10 µM, first compound 0.1 µM
[28] = second compound 10 µM, first compound 0.316 µM
[29] = second compound 10 µM, first compound 1 µM
[30] = second compound 10 µM, first compound 3.16 µM
[31] = second compound 0.1 µM, first compound 10 µM
[32] = second compound 0.316 µM, first compound 10 µM
[33] = second compound 1 µM, first compound 10 µM
[34] = second compound 3.16 µM, first compound 10 µM
[35] = second compound 10 µM, first compound 10 µM
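Further: compound exposure lasted 7 days before the readout.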
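Wherever viability, T/C is given: 100% = DMSO vehicle control viability.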

Compound | IC50 (second compound 0.1 µM) [nM] | IC50 (second compound 0.316 µM) [nM] | IC50 (second compound 1 µM) [nM] | IC50 (second compound 3.16 µM) [nM] | IC50 (second compound 10 µM) [nM] | viability, T/C [2] [%] | viability, T/C [3] [%] | viability, T/C [4] [%] | viability, T/C [5] [%] | viability, T/C [8] [%] | viability, T/C [9] [%] | viability, T/C [10] [%] | viability, T/C [11] [%] | viability, T/C [14] [%] | viability, T/C [15] [%] | viability, T/C [16] [%] | viability, T/C [17] [%] | viability, T/C [20] [%] | viability, T/C [21] [%] | viability, T/C [22] [%] | further results
CC1COCCN1c1cc(-c2ccnn2C)c2ccnc(-c3ccn[nH]3)c2n1 (stereo not given) + C=CC(=O)N1CCN(c2nc(=O)n(-c3c(C)ccnc3C(C)C)c3nc(-c4c(O)cccc4F)c(F)cc23)C(C)C1 | 42 | 50.4 | 44.4 | 53.5 | 28.1 | 58 | 25.9 | 17.3 | 20 | 68.7 | 22.5 | 18.1 | 19.9 | 59.5 | 27.5 | 21.1 | 22.1 | 71.4 | 24.8 | 18.4 | viability, T/C [1]: 95.5%; viability, T/C [6]: 19.7%; viability, T/C [7]: 90.1%; viability, T/C [12]: 20.4%; viability, T/C [13]: 122%; viability, T/C [18]: 22.6%; viability, T/C [19]: 117%; viability, T/C [23]: 21.8%; viability, T/C [24]: 22.1%; viability, T/C [25]: 92.8%; viability, T/C [26]: 45.1%; viability, T/C [27]: 24.1%; viability, T/C [28]: 23.9%; viability, T/C [29]: 24.2%; viability, T/C [30]: 19.9%
CCN1CCN(Cc2ccc(Nc3ncc(F)c(-c4cc(F)c5nc(C)n(C(C)C)c5c4)n3)nc2)CC1 + C=CC(=O)N1CCN(c2nc(=O)n(-c3c(C)ccnc3C(C)C)c3nc(-c4c(O)cccc4F)c(F)cc23)C(C)C1 | > 1000 | > 1000 | > 1000 | > 1000 | 367 | 81.2 | 87.4 | 71.8 | 50.8 | 82.5 | 65.8 | 60.8 | 50.8 | 78.4 | 80.9 | 60.7 | 51 | 83.5 | 73.6 | 74.3 | viability, T/C (second compound 0.1 µM, first compound 0.00316 µM): 103%; viability, T/C [1]: 73.6%; viability, T/C (second compound 0.316 µM, first compound 0.00316 µM): 95.2%; viability, T/C [7]: 88.3%; viability, T/C (second compound 1 µM, first compound 0.00316 µM): 105%; viability, T/C [13]: 83.1%; viability, T/C (second compound 3.16 µM, first compound 0.00316 µM): 94%; viability, T/C [19]: 90.3%; viability, T/C [23]: 47.5%; viability, T/C (second compound 10 µM, first compound 0.00316 µM): 89.1%; viability, T/C [25]: 99.9%; viability, T/C [26]: 90.2%; viability, T/C [27]: 72.5%; viability, T/C [28]: 60.1%; viability, T/C [29]: 4.51%
CCNC(=O)CC1N=C(c2ccc(Cl)cc2)c2cc(OC)ccc2-n2c(C)nnc21 (stereo not given) + C=CC(=O)N1CCN(c2nc(=O)n(-c3c(C)ccnc3C(C)C)c3nc(-c4c(O)cccc4F)c(F)cc23)C(C)C1 | 2650 | 4870 | 4480 | > 10000 | 4230 | 103 | 97.6 | 80.8 | 68.5 | 88.4 | 81.2 | 68.3 | 59.7 | 120 | 82.8 | 84.4 | 64.1 | 101 | 92.7 | 78.6 | viability, T/C [6]: 43%; viability, T/C [31]: 40.8%; viability, T/C [12]: 55%; viability, T/C [32]: 44.5%; viability, T/C [18]: 56.1%; viability, T/C [33]: 40.8%; viability, T/C [23]: 65.3%; viability, T/C [24]: 59.1%; viability, T/C [34]: 51.8%; viability, T/C [26]: 94.5%; viability, T/C [27]: 102%; viability, T/C [28]: 82.6%; viability, T/C [29]: 74.6%; viability, T/C [30]: 50.7%; viability, T/C [35]: 43%
Cn1nccc1Nc1nccc(-c2cc3c(s2)C(C)(C)N(CCN2CCOCC2)C3=O)n1 + C=CC(=O)N1CCN(c2nc(=O)n(-c3c(C)ccnc3C(C)C)c3nc(-c4c(O)cccc4F)c(F)cc23)C(C)C1 | 568 | 601 | 598 | 611 | 703 | 94.2 | 90.4 | 63.4 | 38.2 | 109 | 84.2 | 74.9 | 34 | 82 | 104 | 72.8 | 30.6 | 93.3 | 101 | 81.1 | viability, T/C [6]: 5.19%; viability, T/C [31]: 5.01%; viability, T/C [12]: 8.86%; viability, T/C [32]: 5.22%; viability, T/C [18]: 6.74%; viability, T/C [33]: 6.41%; viability, T/C [23]: 26.6%; viability, T/C [24]: 9.57%; viability, T/C [34]: 9.73%; viability, T/C [26]: 91.2%; viability, T/C [27]: 95.3%; viability, T/C [28]: 74.9%; viability, T/C [29]: 39.3%; viability, T/C [30]: 14.1%; viability, T/C [35]: 11%
